According to PubChem BioAssay AID330 (DTP/NCI, 2004):
“And” between values parts separate entries of the source, which are not always exact repeats. Identical values can stand only once. Toxic doses and inconclusive results are not listed. Rule for the calls: active = survival T/C of 150% or more; inactive = T/C below 125% in these data.

Tested on: P388 leukemia ip, CD2F1 mice, survival T/C
Assay: NCI In Vivo Anticancer Drug Screen. Data for tumor model P388 Leukemia (intraperitoneal) in CD2F1 (CDF1) mice
Conditions: endpoint: median survival time, higher = longer survival
Summary of the method: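 Mice carrying the transplanted tumor received test compound or vehicle. Survival was recorded in each group, and the value is the treated-group measurement divided by that of the vehicle-treated control group.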

[1] = dose: 50.0 mg/kg/injection, schedule: Q01DX009 (ip), vehicle: Klucel (hydroxypropylcellulose) (HPC)
[2] = dose: 100.0 mg/kg/injection, schedule: Q01DX009 (ip), vehicle: Klucel (hydroxypropylcellulose) (HPC)
[3] = dose: 200.0 mg/kg/injection, schedule: Q01DX009 (ip), vehicle: Klucel (hydroxypropylcellulose) (HPC)
[4] = dose: 60.0 mg/kg/injection, schedule: Q01DX005 (ip), vehicle: Klucel (hydroxypropylcellulose) (HPC)
[5] = dose: 120.0 mg/kg/injection, schedule: Q01DX005 (ip), vehicle: Klucel (hydroxypropylcellulose) (HPC)
[6] = dose: 240.0 mg/kg/injection, schedule: Q01DX005 (ip), vehicle: Klucel (hydroxypropylcellulose) (HPC)
[7] = dose: 50.0 mg/kg/injection, schedule: Q01DX009 (ip), vehicle: saline with Tween-80
[8] = dose: 100.0 mg/kg/injection, schedule: Q01DX009 (ip), vehicle: saline with Tween-80
[9] = dose: 200.0 mg/kg/injection, schedule: Q01DX009 (ip), vehicle: saline with Tween-80
[10] = dose: 6.25 mg/kg/injection, schedule: Q01DX005 (ip), vehicle: Klucel (hydroxypropylcellulose) (HPC)
[11] = dose: 12.5 mg/kg/injection, schedule: Q01DX005 (ip), vehicle: Klucel (hydroxypropylcellulose) (HPC)
[12] = dose: 6.25 mg/kg/injection, schedule: Q01DX005 (ip), vehicle: saline with Tween-80
[13] = dose: 12.5 mg/kg/injection, schedule: Q01DX005 (ip), vehicle: saline with Tween-80
[14] = dose: 25.0 mg/kg/injection, schedule: Q01DX005 (ip), vehicle: saline with Tween-80
[15] = dose: 60.0 mg/kg/injection, schedule: Q01DX005 (ip), vehicle: saline with Tween-80
[16] = dose: 120.0 mg/kg/injection, schedule: Q01DX005 (ip), vehicle: saline with Tween-80
[17] = dose: 240.0 mg/kg/injection, schedule: Q01DX005 (ip), vehicle: saline with Tween-80
[18] = dose: 12.5 mg/kg/injection, schedule: Q01DX009 (ip), vehicle: Klucel (hydroxypropylcellulose) (HPC)
[19] = dose: 25.0 mg/kg/injection, schedule: Q01DX009 (ip), vehicle: Klucel (hydroxypropylcellulose) (HPC)
[20] = dose: 50.0 mg/kg/injection, schedule: Q01DX005 (ip), vehicle: Klucel (hydroxypropylcellulose) (HPC)
[21] = dose: 100.0 mg/kg/injection, schedule: Q01DX005 (ip), vehicle: Klucel (hydroxypropylcellulose) (HPC)
[22] = dose: 200.0 mg/kg/injection, schedule: Q01DX005 (ip), vehicle: Klucel (hydroxypropylcellulose) (HPC)
[23] = dose: 25.0 mg/kg/injection, schedule: Q04DX002 (ip), vehicle: saline with Tween-80
[24] = dose: 50.0 mg/kg/injection, schedule: Q04DX002 (ip), vehicle: saline with Tween-80

Measured: T/C

CCOC(=O)N1CCN(CC(O)Cn2c(=O)c3c(nc(N4CCN(C(=O)OCC)CC4)n3C)n(C)c2=O)CC1 (stereo unspecified)
inactive: [1] 100 % of control | [2] 101 % of control | [3] 99 % of control

CCNc1nc(NC(C)C)nc(SC)n1
inactive: dose: 50.0 mg/kg/injection, schedule: Q04DX003 (ip), vehicle: saline with Tween-80 91 % of control | dose: 100.0 mg/kg/injection, schedule: Q04DX003 (ip), vehicle: saline with Tween-80 100 % of control | dose: 200.0 mg/kg/injection, schedule: Q04DX003 (ip), vehicle: saline with Tween-80 87 % of control

CCOC(=O)/C=C/C(=O)NNC(=O)OC(C)(C)C
inactive: dose: 12.5 mg/kg/injection, schedule: Q01DX009 (ip), vehicle: other 99 % of control | dose: 25.0 mg/kg/injection, schedule: Q01DX009 (ip), vehicle: other 93 % of control | dose: 50.0 mg/kg/injection, schedule: Q01DX009 (ip), vehicle: other 101 % of control | dose: 100.0 mg/kg/injection, schedule: Q01DX009 (ip), vehicle: other 119 % of control | dose: 200.0 mg/kg/injection, schedule: Q01DX009 (ip), vehicle: other 108 % of control

CCCCCCCCCCCC(=O)C(=O)c1ccc(O)c(C)c1O
inactive: [1] 107 % of control | [2] 105 % of control | [3] 110 % of control

C1=Cc2ccccc2/C1=C/c1cc2c3c(c1)CCCN3CCC2
inactive: [4] 95 % of control | [5] 91 % of control | [6] 92 % of control

CC(C)CC(NC(=O)C(C)N)C(N)=O (stereo unspecified)
inactive: dose: 50.0 mg/kg/injection, schedule: Q01DX005 (ip), vehicle: saline 99 % of control | dose: 100.0 mg/kg/injection, schedule: Q01DX005 (ip), vehicle: saline 103 % of control | dose: 200.0 mg/kg/injection, schedule: Q01DX005 (ip), vehicle: saline 96 % of control

O=C1CN(Cc2ccc3c(c2)OCO3)NO1
inactive: dose: 25.0 mg/kg/injection, schedule: Q01DX009 (ip), vehicle: saline with Tween-80 111 % of control | [7] 104 % of control and 108 % of control | [8] 101 % of control | [9] 119 % of control and 86 % of control

O=C(O)CCCc1ccccc1[N+](=O)[O-]
inactive: [7] 105 % of control | [8] 105 % of control | [9] 103 % of control | dose: 400.0 mg/kg/injection, schedule: Q01DX009 (ip), vehicle: saline with Tween-80 105 % of control

O=C(O)/C(Cl)=C(Cl)\C=N\c1ncn[nH]1
inactive: [10] 104 % of control | [11] 100 % of control | dose: 25.0 mg/kg/injection, schedule: Q01DX005 (ip), vehicle: Klucel (hydroxypropylcellulose) (HPC) 112 % of control

CNC(C)Cc1ccccc1 (stereo unspecified) (tested in a mixture with another compound)
inactive: [12] 112 % of control | [13] 103 % of control | [14] 104 % of control | dose: 50.0 mg/kg/injection, schedule: Q01DX005 (ip), vehicle: saline with Tween-80 116 % of control

NN1C(=O)CC(c2cccc(Cl)c2)C1=O (stereo unspecified)
inactive: [15] 92 % of control | [16] 92 % of control | [17] 92 % of control

Clc1ccc(-c2csc3nc(-c4cccs4)nn23)cc1
inactive: dose: 30.0 mg/kg/injection, schedule: Q01DX005 (ip), vehicle: Klucel (hydroxypropylcellulose) (HPC) 97 % of control | [4] 95 % of control | [5] 95 % of control | [6] 93 % of control

O=C1CN(c2ccccc2)C(=O)CN1/N=C/c1ccc[nH]1
inactive: [12] 95 % of control | [13] 100 % of control | [14] 97 % of control

OC(c1cc2cc(Cl)c(Cl)cc2c2cc(C(F)(F)F)ccc12)C1CCCCN1 (stereo unspecified)
inactive: dose: 6.25 mg/kg/injection, schedule: Q01DX009 (ip), vehicle: saline with Tween-80 109 % of control | dose: 12.5 mg/kg/injection, schedule: Q01DX009 (ip), vehicle: saline with Tween-80 102 % of control

CNC(=O)NC1OC(CO)C(O)C1O (stereo unspecified)
inactive: dose: 100.0 mg/kg/injection, schedule: Q01DX001 (ip), vehicle: water 97 % of control | dose: 200.0 mg/kg/injection, schedule: Q01DX001 (ip), vehicle: water 103 % of control | dose: 400.0 mg/kg/injection, schedule: Q01DX001 (ip), vehicle: water 104 % of control

CCC(=O)C(=O)c1ccc(O)c(C)c1O
inactive: [7] 100 % of control | [8] 96 % of control | [9] 90 % of control

CCCCC([Se])=Nc1ccc(Br)cc1
inactive: dose: 6.25 mg/kg/injection, schedule: Q01DX009 (ip), vehicle: Klucel (hydroxypropylcellulose) (HPC) 106 % of control | [18] 104 % of control | [19] 104 % of control

Cc1ccc(OP2(=O)NC3CCCCC3N2)cc1 (stereo unspecified)
inactive: [20] 99 % of control | [21] 93 % of control | [22] 96 % of control

N#C/C(=C\Nc1ccccn1)C(=O)c1ccccc1
inactive: [15] 91 % of control | [16] 91 % of control | [17] 91 % of control

O=S(=O)([O-])NC1CCCCC1.O=S(=O)([O-])NC1CCCCC1.[Hg+2].[Hg+2].[Hg+2].[O-2].[O-2]
inactive: dose: 0.5 mg/kg/injection, schedule: Q04DX003 (ip), vehicle: saline 96 % of control | dose: 1.0 mg/kg/injection, schedule: Q04DX003 (ip), vehicle: saline 100 % of control | dose: 2.0 mg/kg/injection, schedule: Q04DX003 (ip), vehicle: saline 100 % of control

O=C(O)C(CS(=O)(=O)O)S(=O)(=O)O (stereo unspecified)
inactive: dose: 7.5 mg/kg/injection, schedule: Q01DX009 (ip), vehicle: saline with Tween-80 110 % of control | dose: 15.0 mg/kg/injection, schedule: Q01DX009 (ip), vehicle: saline with Tween-80 109 % of control | dose: 30.0 mg/kg/injection, schedule: Q01DX009 (ip), vehicle: saline with Tween-80 106 % of control

CC(C)N1C(=O)C2C3C=CC(C3)C2C1=O (stereo unspecified)
inactive: [23] 94 % of control | [24] 108 % of control

COc1ccc(-c2nn3c(=O)c(Cc4ccccc4)c(O)nc3nc2-c2ccccc2)cc1
inactive: [10] 103 % of control | [11] 93 % of control

Cn1c(=O)sc2ccccc21
inactive: [23] 102 % of control | [24] 104 % of control | dose: 100.0 mg/kg/injection, schedule: Q04DX002 (ip), vehicle: saline with Tween-80 110 % of control

O=[N+]([O-])c1ccc(/C=N/O)s1
inactive: [18] 109 % of control | [19] 101 % of control | [1] 108 % of control

O=C1c2ccccc2C(=O)N1OCc1cccc(C(F)(F)F)c1
inactive: [20] 98 % of control | [21] 90 % of control | [22] 86 % of control
